Reference: ChEMBL document CHEMBL5233266, “β-Carboline as a Privileged Scaffold for Multitarget Strategies in Alzheimer's Disease Therapy” (J Med Chem, 2021)
“And” between values parts separate entries of the source, which are not always exact repeats. Equal values may be shown once. Each block holds one compound with its values, some of them ahead of it.

Assays:
[1] = target: T1, 5-hydroxytryptamine receptor 2C (Homo sapiens, UniProt P28335); assay: Binding affinity to 5-HT2C (unknown origin) assessed as inhibition constant
T1 sequence (P28335 whole entry): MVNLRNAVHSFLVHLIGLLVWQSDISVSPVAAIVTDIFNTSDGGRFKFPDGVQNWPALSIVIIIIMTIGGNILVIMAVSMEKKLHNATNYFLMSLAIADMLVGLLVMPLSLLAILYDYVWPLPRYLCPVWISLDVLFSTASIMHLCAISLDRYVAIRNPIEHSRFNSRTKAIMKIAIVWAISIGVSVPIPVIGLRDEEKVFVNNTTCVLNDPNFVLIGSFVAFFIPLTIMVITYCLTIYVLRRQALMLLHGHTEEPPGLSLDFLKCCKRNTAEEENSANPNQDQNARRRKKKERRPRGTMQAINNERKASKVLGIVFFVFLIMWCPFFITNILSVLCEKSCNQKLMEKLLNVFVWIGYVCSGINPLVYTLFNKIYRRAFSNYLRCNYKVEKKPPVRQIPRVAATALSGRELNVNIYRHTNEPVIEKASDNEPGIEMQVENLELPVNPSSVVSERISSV

Acetylcholinesterase [2] = target: T2, Acetylcholinesterase (Homo sapiens, UniProt P22303); assay: Inhibition of AChE (unknown origin) using acetylthiocholine iodide as substrate incubated for 20 mins followed by substrate addition by Ellman's method
Cholinesterase [3] = target: T3, Cholinesterase (Homo sapiens, UniProt P06276); assay: Inhibition of BuChE (unknown origin) using acetylthiocholine iodide as substrate incubated for 20 mins followed by substrate addition by Ellman's method
[4] = target: T4, Gamma-aminobutyric acid receptor subunit alpha-1 (Homo sapiens, UniProt P14867); assay: Binding affinity to human recombinant GABAA alpha1 receptor assessed as inhibition constant incubated for 1 hrs by liquid scintillation counting analysis
T4 sequence (P14867 whole entry): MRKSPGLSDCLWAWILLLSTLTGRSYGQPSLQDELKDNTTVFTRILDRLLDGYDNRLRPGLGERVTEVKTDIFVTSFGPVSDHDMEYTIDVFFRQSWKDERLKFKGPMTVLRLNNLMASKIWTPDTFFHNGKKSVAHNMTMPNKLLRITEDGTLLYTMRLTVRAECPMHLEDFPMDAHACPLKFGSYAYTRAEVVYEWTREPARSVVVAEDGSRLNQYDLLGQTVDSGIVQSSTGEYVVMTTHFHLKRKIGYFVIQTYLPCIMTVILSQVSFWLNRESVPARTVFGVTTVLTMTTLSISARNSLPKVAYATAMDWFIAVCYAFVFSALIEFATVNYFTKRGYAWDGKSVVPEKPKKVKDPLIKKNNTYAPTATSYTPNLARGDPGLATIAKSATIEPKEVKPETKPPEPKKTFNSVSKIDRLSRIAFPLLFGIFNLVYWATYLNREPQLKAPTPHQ

[5] = target: T5, Gamma-aminobutyric acid receptor subunit alpha-2 (Homo sapiens, UniProt P47869); assay: Binding affinity to human recombinant GABAA alpha2 receptor assessed as inhibition constant incubated for 1 hrs by liquid scintillation counting analysis
T5 sequence (P47869 whole entry): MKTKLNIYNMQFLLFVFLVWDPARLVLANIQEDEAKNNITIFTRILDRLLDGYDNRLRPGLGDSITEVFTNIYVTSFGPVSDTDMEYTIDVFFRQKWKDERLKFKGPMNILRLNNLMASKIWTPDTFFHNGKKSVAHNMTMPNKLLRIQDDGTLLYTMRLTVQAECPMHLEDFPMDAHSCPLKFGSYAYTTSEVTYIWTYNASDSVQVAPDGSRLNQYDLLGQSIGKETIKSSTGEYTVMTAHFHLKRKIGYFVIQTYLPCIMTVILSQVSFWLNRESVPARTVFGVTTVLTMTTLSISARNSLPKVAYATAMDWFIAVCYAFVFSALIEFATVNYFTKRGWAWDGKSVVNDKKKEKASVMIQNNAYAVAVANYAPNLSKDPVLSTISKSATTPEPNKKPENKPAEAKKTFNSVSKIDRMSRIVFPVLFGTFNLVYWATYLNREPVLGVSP

[6] = target: T6, Gamma-aminobutyric acid receptor subunit alpha-3 (Homo sapiens, UniProt P34903); assay: Binding affinity to human recombinant GABAA alpha3 receptor assessed as inhibition constant incubated for 1 hrs by liquid scintillation counting analysis
T6 sequence (P34903 whole entry): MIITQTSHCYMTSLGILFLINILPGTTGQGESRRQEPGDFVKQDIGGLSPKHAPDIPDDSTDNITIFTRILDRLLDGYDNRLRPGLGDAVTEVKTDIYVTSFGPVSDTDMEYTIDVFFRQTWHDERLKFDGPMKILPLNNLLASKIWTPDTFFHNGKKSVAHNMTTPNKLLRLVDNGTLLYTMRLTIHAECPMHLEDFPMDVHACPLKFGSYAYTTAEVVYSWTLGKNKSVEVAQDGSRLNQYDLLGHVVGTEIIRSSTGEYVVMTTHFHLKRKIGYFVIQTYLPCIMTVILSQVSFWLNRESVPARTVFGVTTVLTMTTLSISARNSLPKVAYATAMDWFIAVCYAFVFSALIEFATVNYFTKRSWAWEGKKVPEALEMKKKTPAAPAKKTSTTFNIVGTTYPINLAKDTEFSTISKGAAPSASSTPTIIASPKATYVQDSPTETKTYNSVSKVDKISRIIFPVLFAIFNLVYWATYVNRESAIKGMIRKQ

[7] = target: T7, Gamma-aminobutyric acid receptor subunit alpha-5 (Homo sapiens, UniProt P31644); assay: Binding affinity to human recombinant GABAA alpha5 receptor assessed as inhibition constant incubated for 1 hrs by liquid scintillation counting analysis
T7 sequence (P31644 whole entry): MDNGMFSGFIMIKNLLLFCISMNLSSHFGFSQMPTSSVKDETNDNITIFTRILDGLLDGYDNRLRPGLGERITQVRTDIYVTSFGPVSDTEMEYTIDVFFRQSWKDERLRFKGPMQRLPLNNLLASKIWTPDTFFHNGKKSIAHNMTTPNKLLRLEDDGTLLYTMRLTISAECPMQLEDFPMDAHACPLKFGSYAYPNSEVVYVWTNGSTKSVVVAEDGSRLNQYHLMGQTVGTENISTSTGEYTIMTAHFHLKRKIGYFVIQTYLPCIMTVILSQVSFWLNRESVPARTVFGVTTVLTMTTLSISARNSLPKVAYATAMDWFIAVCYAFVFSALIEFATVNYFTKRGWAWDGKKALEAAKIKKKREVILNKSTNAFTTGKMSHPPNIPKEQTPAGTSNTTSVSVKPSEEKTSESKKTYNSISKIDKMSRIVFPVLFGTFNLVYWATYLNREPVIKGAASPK

[8] = target: Gamma-aminobutyric acid receptor subunit alpha-6 (Homo sapiens, UniProt Q16445); assay: Binding affinity to human recombinant GABAA alpha6 receptor assessed as inhibition constant incubated for 1 hrs by liquid scintillation counting analysis
[9] = target: GABA-A receptor; anion channel; assay: Inhibition of GABAA receptor (unknown origin); assay type: protein-complex assay, Homo sapiens
[10] = target: cGMP-specific 3',5'-cyclic phosphodiesterase (Homo sapiens, UniProt O76074); assay: Binding affinity to PDE5 (unknown origin) assessed as inhibition constant
Acetylcholinesterase [11] = target: T2, Acetylcholinesterase; assay: Inhibition of AChE (unknown origin)
Cholinesterase [12] = target: T3, Cholinesterase; assay: Inhibition of BuChE (unknown origin)
Acetylcholinesterase [13] = target: T2, Acetylcholinesterase; assay: Inhibition of AChE (unknown origin) by Ellman's method
[14] = target: Glutamate receptor ionotropic, NMDA 2B (Homo sapiens, UniProt Q05586+Q13224); assay: Inhibition of NMDA receptor NR2B subunit (unknown origin)
Acetylcholinesterase [15] = target: T2, Acetylcholinesterase; assay: Inhibition of AChE (unknown origin) incubated for 40 mins by Ellman's method
[16] = target: Gamma-aminobutyric acid receptor subunit alpha-4 (Homo sapiens, UniProt P48169); assay: Binding affinity to human recombinant GABAA alpha4 receptor assessed as inhibition constant incubated for 1 hrs by liquid scintillation counting analysis
[17] = target: GABA-A receptor; anion channel; assay: Displacement of [3H]flunitrazepam from GABAA (unknown origin ) receptor by radioligand binding assay; assay type: protein-complex assay, Homo sapiens

Chain of Glutamate receptor ionotropic, NMDA 2B (Q13224 whole entry, one chain of several): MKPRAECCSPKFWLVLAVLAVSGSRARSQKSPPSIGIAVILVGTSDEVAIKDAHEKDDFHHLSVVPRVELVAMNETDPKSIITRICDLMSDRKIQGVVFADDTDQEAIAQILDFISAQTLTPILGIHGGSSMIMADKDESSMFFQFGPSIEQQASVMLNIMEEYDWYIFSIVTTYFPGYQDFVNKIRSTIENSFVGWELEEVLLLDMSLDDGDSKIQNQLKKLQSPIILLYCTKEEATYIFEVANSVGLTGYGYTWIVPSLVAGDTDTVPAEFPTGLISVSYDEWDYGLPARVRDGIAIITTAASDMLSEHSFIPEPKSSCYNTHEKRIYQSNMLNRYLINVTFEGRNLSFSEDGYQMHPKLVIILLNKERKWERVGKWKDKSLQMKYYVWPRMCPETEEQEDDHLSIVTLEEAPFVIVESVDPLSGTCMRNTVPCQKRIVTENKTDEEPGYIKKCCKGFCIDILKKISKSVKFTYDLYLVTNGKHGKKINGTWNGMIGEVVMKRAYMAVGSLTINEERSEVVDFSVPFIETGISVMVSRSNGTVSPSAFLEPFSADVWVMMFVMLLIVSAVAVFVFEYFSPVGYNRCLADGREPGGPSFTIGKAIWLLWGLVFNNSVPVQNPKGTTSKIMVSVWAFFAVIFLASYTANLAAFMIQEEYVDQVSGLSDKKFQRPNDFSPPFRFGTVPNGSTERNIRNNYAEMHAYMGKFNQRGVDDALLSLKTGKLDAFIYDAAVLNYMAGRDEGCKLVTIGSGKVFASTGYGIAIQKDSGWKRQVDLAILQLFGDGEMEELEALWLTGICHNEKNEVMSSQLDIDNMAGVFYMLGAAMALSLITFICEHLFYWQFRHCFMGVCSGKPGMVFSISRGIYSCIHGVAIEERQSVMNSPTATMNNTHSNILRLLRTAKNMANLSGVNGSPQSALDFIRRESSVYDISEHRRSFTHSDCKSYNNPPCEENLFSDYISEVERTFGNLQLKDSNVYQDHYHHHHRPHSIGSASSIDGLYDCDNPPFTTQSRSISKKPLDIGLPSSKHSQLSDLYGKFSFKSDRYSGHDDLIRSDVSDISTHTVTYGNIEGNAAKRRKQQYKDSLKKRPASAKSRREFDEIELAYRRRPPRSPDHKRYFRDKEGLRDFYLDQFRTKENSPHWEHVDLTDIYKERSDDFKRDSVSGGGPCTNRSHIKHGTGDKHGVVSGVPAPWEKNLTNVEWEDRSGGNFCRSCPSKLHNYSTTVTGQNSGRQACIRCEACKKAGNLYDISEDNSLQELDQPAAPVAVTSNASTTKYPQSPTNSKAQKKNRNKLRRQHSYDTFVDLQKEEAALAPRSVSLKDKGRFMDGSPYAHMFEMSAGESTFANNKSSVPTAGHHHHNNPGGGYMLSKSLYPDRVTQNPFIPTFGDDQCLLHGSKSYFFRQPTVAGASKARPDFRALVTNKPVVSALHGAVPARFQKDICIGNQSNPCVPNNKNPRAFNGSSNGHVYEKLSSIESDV
Chain of Gamma-aminobutyric acid receptor subunit alpha-6 (Q16445 whole entry): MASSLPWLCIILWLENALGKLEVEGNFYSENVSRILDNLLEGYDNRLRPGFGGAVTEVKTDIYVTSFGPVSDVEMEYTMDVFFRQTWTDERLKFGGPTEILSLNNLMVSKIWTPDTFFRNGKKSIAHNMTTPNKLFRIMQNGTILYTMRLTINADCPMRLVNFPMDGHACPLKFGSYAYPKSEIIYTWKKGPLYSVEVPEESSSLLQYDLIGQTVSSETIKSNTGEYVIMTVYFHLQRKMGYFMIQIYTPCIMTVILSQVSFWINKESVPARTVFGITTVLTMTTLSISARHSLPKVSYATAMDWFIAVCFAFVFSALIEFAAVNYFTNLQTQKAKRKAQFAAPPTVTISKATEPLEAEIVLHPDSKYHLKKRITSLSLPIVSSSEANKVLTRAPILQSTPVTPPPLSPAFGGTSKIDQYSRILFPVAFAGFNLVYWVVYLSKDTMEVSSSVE
T3 sequence (P06276 whole entry): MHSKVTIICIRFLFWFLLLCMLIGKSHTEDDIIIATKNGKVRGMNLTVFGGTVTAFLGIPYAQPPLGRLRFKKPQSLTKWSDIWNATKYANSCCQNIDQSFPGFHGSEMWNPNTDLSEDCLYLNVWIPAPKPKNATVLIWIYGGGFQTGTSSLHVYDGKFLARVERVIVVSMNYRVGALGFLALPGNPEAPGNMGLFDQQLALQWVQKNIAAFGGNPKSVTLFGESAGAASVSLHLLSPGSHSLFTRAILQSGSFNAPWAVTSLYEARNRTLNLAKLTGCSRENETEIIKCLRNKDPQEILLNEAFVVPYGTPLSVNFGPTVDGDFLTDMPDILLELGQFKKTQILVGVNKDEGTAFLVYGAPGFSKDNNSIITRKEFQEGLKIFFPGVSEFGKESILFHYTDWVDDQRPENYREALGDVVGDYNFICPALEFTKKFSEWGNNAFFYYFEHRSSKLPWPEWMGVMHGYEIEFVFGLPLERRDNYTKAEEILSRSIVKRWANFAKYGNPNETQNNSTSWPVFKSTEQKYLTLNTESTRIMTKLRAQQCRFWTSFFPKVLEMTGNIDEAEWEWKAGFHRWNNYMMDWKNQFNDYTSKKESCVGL
T2 sequence (P22303 whole entry): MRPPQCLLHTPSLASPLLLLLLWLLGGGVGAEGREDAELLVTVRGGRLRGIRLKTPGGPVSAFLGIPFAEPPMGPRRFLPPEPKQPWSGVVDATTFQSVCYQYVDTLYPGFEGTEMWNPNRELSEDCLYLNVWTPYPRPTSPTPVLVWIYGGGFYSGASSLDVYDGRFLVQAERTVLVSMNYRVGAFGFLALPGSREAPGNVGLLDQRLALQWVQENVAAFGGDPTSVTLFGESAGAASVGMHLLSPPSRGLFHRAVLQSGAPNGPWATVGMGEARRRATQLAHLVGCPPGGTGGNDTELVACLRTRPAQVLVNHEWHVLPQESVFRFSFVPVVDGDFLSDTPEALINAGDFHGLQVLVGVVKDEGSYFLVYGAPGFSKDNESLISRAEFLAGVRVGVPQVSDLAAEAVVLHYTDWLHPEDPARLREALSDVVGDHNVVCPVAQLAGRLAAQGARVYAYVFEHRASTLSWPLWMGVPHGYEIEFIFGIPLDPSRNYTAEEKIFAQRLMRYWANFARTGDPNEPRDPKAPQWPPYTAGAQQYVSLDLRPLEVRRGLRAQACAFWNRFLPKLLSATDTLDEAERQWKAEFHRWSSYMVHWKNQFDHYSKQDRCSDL
Chain of Gamma-aminobutyric acid receptor subunit alpha-4 (P48169 whole entry): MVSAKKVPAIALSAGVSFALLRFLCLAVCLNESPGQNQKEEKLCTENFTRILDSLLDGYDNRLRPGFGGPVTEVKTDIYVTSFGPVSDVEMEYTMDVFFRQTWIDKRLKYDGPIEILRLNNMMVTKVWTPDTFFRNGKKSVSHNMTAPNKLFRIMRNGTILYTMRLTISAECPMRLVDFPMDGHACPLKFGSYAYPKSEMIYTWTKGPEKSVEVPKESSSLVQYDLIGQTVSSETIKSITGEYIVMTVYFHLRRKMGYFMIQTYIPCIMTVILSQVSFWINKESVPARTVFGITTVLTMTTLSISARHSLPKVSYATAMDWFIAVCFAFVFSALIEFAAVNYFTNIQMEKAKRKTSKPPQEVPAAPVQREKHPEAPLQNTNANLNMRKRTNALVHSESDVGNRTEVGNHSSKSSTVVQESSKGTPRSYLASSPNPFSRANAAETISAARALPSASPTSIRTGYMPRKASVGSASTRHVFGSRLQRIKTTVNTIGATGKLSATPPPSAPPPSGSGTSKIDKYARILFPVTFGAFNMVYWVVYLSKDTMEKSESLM

Compound: COc1cccc2[nH]c3c(c12)CCN=C3C
Ki [1]: 65 nM

Compound: c1ccc2c(c1)CN1CCc3c([nH]c4ccccc34)C1=N2
IC50 (Acetylcholinesterase [2]): 3400 nM
IC50 (Cholinesterase [3]): 500 nM

Ki [4]: 4 nM
Ki [5]: 12 nM
Ki [6]: 24 nM
Ki [7]: 210 nM
Ki [8]: > 10000 nM
IC50 [9]: 4 nM
Compound: Clc1ccc2c(c1)[nH]c1c2ncc2[nH]c3ccccc3c21

Ki [10]: 64 nM
Compound: Nc1ccc(-c2ccc(C(=O)N3CCc4c([nH]c5ccccc45)C3c3ccc4c(c3)OCO4)o2)cc1 (configuration not stated)

Compound: CCOC(=O)[n+]1ccc2c([nH]c3cc(OC)ccc32)c1C
IC50 (Acetylcholinesterase [11]): 250 nM
IC50 (Cholinesterase [12]): 1500 nM
IC50 (Acetylcholinesterase [13]): 250 nM

IC50 [14]: 27000 nM
Compound: c1ccc(C[C@@H]2NCCc3c2[nH]c2ccccc32)cc1

Ki [10]: 51 nM
Compound: Nc1cccc(-c2ccc(C(=O)N3CCc4c([nH]c5ccccc45)C3c3ccc4c(c3)OCO4)o2)c1 (configuration not stated)

Compound: Cc1ccc([N+]2=Cc3c(c4ccccc4n3C)CC2)cc1
IC50 (Acetylcholinesterase [15]): 1500 nM

Compound: Cn1c2c(c3ccccc31)CC[N+](c1ccc(Br)cc1Br)=C2
IC50 (Acetylcholinesterase [15]): > 10000 nM

IC50 [14]: 87 nM
Compound: Oc1ccc(CCCN2CCc3c([nH]c4ccccc34)C2)cc1

Compound: C#Cc1ccc2[nH]c3cnc(C(=O)OC(C)(C)C)cc3c2c1
Ki [4]: 1 nM
Ki [6]: 100 nM
Ki [16]: 2000 nM
Ki [7]: 210 nM
Ki [8]: 2000 nM

IC50 [17]: 3 nM
Ki [5]: 52 nM
Ki [6]: 69 nM
Ki [16]: 1000 nM
Ki [7]: 590 nM
Ki [8]: > 1000 nM
Compound: CCCOc1cc2c(cn1)[nH]c1ccccc12

Compound: Cn1c2ccccc2c2cc[n+](-c3ccc(Br)cc3Br)cc21
IC50 (Acetylcholinesterase [13]): 110 nM
IC50 (Acetylcholinesterase [15]): 110 nM

IC50 [14]: 30000 nM
Compound: O=C1CCC[C@@H]2c3[nH]c4ccccc4c3C[C@@H](CO)N12

Ki [10]: 9 nM
Compound: COc1ccc(-c2cnc(N3CC(=O)c4c([nH]c5ccccc45)C3c3ccc4c(c3)OCO4)nc2)cc1OC (configuration not stated)

Compound: Cn1c2c(c3ccccc31)CC[N+](c1ccc(I)cc1)=C2
IC50 (Acetylcholinesterase [15]): 1500 nM

Compound: O=C(CCN1CCCC1)Nc1ccc2c(c1)CN1CCc3c([nH]c4ccccc34)C1=N2
IC50 (Acetylcholinesterase [2]): 29 nM
IC50 (Cholinesterase [3]): 840 nM

Compound: CN1c2ccc(OCc3ccccc3)cc2C(=O)N2CCc3c([nH]c4ccccc34)C21 (configuration not stated)
IC50 (Acetylcholinesterase [2]): 3000 nM
IC50 (Cholinesterase [3]): 880 nM

Compound: Cn1c2ccccc2c2cc[n+](-c3ccc(I)cc3)cc21
IC50 (Acetylcholinesterase [11]): 240 nM and 300 nM
IC50 (Cholinesterase [12]): 32000 nM and 116000 nM
IC50 (Acetylcholinesterase [15]): 240 nM

Ki [10]: 64 nM
Compound: O=C(c1ccc(-c2ccc([N+](=O)[O-])cc2)o1)N1CCc2c([nH]c3ccccc23)C1c1ccc2c(c1)OCO2 (configuration not stated)
